Experimental data: ChEMBL document CHEMBL1151358, “Doridosine, 1-methylisoguanosine, from Anisodoris nobilis; structure, pharmacological properties and synthesis” (1981)

Columns and labels:
[1] = Inhibition of guinea pig atrial contraction at 14 uM; assay type: functional; settings: Cavia porcellus, Cardiac atrium
[2] = Inhibition of guinea pig atrial contraction at 5 uM; assay type: functional; settings: Cavia porcellus, Cardiac atrium
[3] = Inhibition of guinea pig atrial contraction at 20 uM; assay type: functional; settings: Cavia porcellus, Cardiac atrium
[4] = Inhibition of guinea pig atrial contraction at 5 uM in presence of 10 uM/L theophylline; assay type: functional, Cavia porcellus, Cardiac atrium
[5] = Inhibition of guinea pig atrial contraction at 5 uM in presence of 100 uM/L theophylline; assay type: functional, Cavia porcellus, Cardiac atrium
[6] = Inhibition of guinea pig atrial contraction at 20 uM in presence of 10 uM/L theophylline; assay type: functional, Cavia porcellus, Cardiac atrium
[7] = Inhibition of guinea pig atrial contraction at 20 uM in presence of 100 uM/L theophylline; assay type: functional, Cavia porcellus, Cardiac atrium

With `Cn1c(=O)[nH]c2c(ncn2[C@@H]2O[C@H](CO)[C@@H](O)[C@H]2O)c1=N` the inhibition at 14 µM [1] was 50%, the inhibition at 5 µM [2] was 65% and the inhibition at 20 µM [3] was 45.2%. The “inhibition (INH)” value [4] was 83%, the “inhibition (INH)” value [5] was 64% and the “inhibition (INH)” value [6] was 95%. For the same molecule, the “inhibition (INH)” value [7] was 82%.
